Reference: ChEMBL document CHEMBL1148824, “Quinazolinone derivatives as orally available ghrelin receptor antagonists for the treatment of diabetes and obesity” (J Med Chem, 2007)

Assays:
Ghrelin receptor = Ghrelin receptor (Ovis aries, UniProt Q8MHZ5); test: Displacement of [125I]ghrelin from ovine recombinant GHSR1a expressed in HEK293F cells after 6 hrs by scintillation proximity assay; type: cell-based
[1] = Cmax in Wistar rat at 10 mg/kg, po; type: ADME, organism-based; set-up: dose 10 mg/kg, route oral; settings: in vivo
[2] = Bioavailability in Wistar rat plasma at 3 mg/kg, po; type: ADME, organism-based
[3] = Bioavailability in Wistar rat plasma at 1 mg/kg, iv; type: ADME, organism-based

Ghrelin receptor, sequence (Q8MHZ5 whole entry): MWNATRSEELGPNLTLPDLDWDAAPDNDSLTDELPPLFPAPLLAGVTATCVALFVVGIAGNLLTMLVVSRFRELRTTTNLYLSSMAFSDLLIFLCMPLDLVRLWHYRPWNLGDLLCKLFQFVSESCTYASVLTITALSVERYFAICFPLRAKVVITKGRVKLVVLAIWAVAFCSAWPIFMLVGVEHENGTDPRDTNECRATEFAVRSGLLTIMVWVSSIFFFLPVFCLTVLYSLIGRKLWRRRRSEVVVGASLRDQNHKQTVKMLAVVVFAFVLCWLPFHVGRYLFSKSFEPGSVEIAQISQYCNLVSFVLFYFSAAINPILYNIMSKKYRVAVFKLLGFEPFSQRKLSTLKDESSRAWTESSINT

Ki (Ghrelin receptor) [µM]	Cmax [1] [nM]	bioavailability [2] [%]	bioavailability [3] [%]	SMILES
0.02	< 20	–	–	CCCCN(C)c1ccc2nc(-c3ccccc3OC)n(CC3CCCN(CC)C3)c(=O)c2c1 (centres undefined)
–	–	29	29	CCN1CCCC(Cn2c(-c3ccccc3C)nc3ccc(-c4ccc(Cl)cc4)cc3c2=O)C1.Cl (centres undefined)
